Test results taken from ChEMBL document CHEMBL4024754, “Development of Potent, Protease-Resistant Agonists of the Parathyroid Hormone Receptor with Broad β Residue Distribution” (J Med Chem, 2017).
pEC50: −log10 of the molar value. Numbered stars: 1 amine (or outer) side, 2 acyl side, 3 side chain; on linkers, the order of the positions; unused ones are H or OH. Square brackets hold non-standard residues; d marks the D form. Peptide text beside a SMILES is read from it. * marks the point of attachment. NH(1S,2S-2-CONH2-cPent) = NC(=O)[C@H]1CCC[C@@H]1N*; β3hW = N[C@H](CC(=O)O)Cc1c[nH]c2ccccc12; ACPC(1S,2S) = N[C@H]1CCC[C@@H]1C(=O)*; X1 = O=C([C@H]1CCC[C@@H]1N[*:1])[*:2]; X2 = O=C([C@H]1CNC[C@@H]1N[*:1])[*:2]; hArg = N=C(N)NCCCC[C@H](N)C(=O)O; β3hE = N[C@@H](CCC(=O)O)CC(=O)O; β3hF = N[C@H](CC(=O)O)Cc1ccccc1; β3hK = NCCCC[C@H](N)CC(=O)O; β3hM = CSCC[C@H](N)CC(=O)O; β3hD = NC(CC(=O)O)CC(=O)O; Aib = CC(C)(N)C(=O)O

What was measured:
[1] = target: T1, Parathyroid hormone/parathyroid hormone-related peptide receptor (Homo sapiens, UniProt Q03431); assay: Agonist activity at human PTH1 receptor expressed in human GP2.3 cells assessed as induction of cAMP after 12 to 20 mins by luciferase reporter gene assay; assay type: functional, cell-based; settings: read-out: EC50
T1 sequence (Q03431 whole entry): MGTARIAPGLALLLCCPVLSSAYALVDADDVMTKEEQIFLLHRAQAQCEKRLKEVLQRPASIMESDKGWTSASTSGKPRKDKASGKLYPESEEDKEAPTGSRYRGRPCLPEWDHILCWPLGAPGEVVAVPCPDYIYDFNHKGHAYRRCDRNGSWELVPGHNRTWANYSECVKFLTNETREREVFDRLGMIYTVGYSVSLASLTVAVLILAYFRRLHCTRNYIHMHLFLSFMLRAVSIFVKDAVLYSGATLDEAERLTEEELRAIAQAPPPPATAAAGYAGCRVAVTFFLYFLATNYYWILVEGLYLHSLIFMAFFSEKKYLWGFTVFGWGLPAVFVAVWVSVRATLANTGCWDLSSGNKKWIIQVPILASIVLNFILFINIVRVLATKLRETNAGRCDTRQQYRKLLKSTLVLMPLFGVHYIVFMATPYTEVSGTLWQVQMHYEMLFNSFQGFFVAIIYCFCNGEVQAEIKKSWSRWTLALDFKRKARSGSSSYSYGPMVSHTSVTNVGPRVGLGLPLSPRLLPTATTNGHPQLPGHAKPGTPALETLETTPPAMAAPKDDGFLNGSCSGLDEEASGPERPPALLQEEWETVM

[2] = target: T2, Parathyroid hormone/parathyroid hormone-related peptide receptor (Homo sapiens) (UniProt Q03431); assay: Agonist activity at human PTH1 receptor expressed in human GP2.3 cells assessed as induction of cAMP after 12 to 20 mins by luciferase reporter gene assay relative to PTH(1 to 34 residues)-NH2; assay type: functional, cell-based
T2 sequence (whole entry): T1 sequence (Q03431 whole entry)

Row | SMILES | pEC50 [1] | fold change (FC) [2]
1 | CC[C@H](C)[C@H](NC(=O)[C@H](CCC(=O)O)NC(=O)[C@H](C)NC(=O)[C@@H](NC(=O)[C@H](C)N)C(C)C)C(=O)N[C@@H](CCC(N)=O)C(=O)N[C@@H](CC(C)C)C(=O)N[C@@H](CCSC)C(=O)N[C@@H](Cc1cnc[nH]1)C(=O)N[C@@H](CCC(N)=O)C(=O)N[C@@H](CCCCNC(=N)N)C(=O)N[C@@H](C)C(=O)N[C@@H](CCCCN)C(=O)N[C@H](CC(=O)N[C@@H](CC(C)C)C(=O)N[C@@H](CC(N)=O)C(=O)N[C@@H](CO)C(=O)N[C@@H](CCSC)CC(=O)N[C@@H](CCCNC(=N)N)C(=O)N[C@@H](CCCNC(=N)N)C(=O)N[C@H](C(=O)N[C@@H](CCC(=O)O)CC(=O)N[C@@H](Cc1c[nH]c2ccccc12)C(=O)N[C@@H](CC(C)C)C(=O)N[C@@H](CCCNC(=N)N)C(=O)N[C@@H](CCCCN)CC(=O)N[C@@H](CCCCN)C(=O)N[C@@H](CC(C)C)C(=O)N[C@@H](CCC(N)=O)C(=O)N[C@@H](CC(=O)O)CC(=O)N[C@H](C(=O)N[C@@H](Cc1cnc[nH]1)C(=O)N[C@@H](CC(N)=O)C(=O)N[C@H](CC(N)=O)Cc1ccccc1)C(C)C)C(C)C)Cc1c[nH]c2ccccc12 (H-AVAEIQLMHQ[hArg]AK[β3hW]LNS[β3hM]RRV[β3hE]WLR[β3hK]KLQ[β3hD]VHN[β3hF]-NH2) | 9.36 | 5.4
2 | CSCC[C@@H](CC(=O)N[C@@H](CCCNC(=N)N)C(=O)N[C@@H](CCCNC(=N)N)C(=O)N[C@H](C(=O)N[C@@H](CCC(=O)O)CC(=O)N[C@@H](Cc1c[nH]c2ccccc12)C(=O)N[C@@H](CC(C)C)C(=O)N[C@@H](CCCNC(=N)N)C(=O)N[C@@H](CCCCN)CC(=O)N[C@@H](CCCCN)C(=O)N[C@@H](CC(C)C)C(=O)N[C@@H](CCC(N)=O)C(=O)N[C@@H](CC(=O)O)CC(=O)N[C@H](C(=O)N[C@@H](Cc1cnc[nH]1)C(=O)N[C@@H](CC(N)=O)C(=O)N[C@H](CC(N)=O)Cc1ccccc1)C(C)C)C(C)C)NC(=O)[C@H](CO)NC(=O)[C@H](CC(N)=O)NC(=O)[C@H](CC(C)C)NC(=O)C[C@H](Cc1c[nH]c2ccccc12)NC(=O)[C@H](CCCCN)NC(=O)[C@H](C)NC(=O)[C@H](CCCCNC(=N)N)NC(=O)[C@H](CCC(N)=O)NC(=O)[C@H](Cc1cnc[nH]1)NC(=O)[C@H](CCSC)NC(=O)[C@H]1CCC[C@@H]1NC(=O)[C@H](CCC(N)=O)NC(=O)[C@H]1CCC[C@@H]1NC(=O)[C@H](CCC(=O)O)NC(=O)C(C)(C)NC(=O)[C@@H](NC(=O)[C@H]1CCC[C@@H]1N)C(C)C ({ACPC(1S,2S)}-V[Aib]E[X1]Q[X1]MHQ[hArg]AK[β3hW]LNS[β3hM]RRV[β3hE]WLR[β3hK]KLQ[β3hD]VHN[β3hF]-NH2) | 9.10 | 9.7
3 | CC[C@H](C)[C@H](NC(=O)[C@H](CCC(=O)O)NC(=O)[C@H](C)NC(=O)[C@@H](NC(=O)[C@H](C)N)C(C)C)C(=O)N[C@@H](CCC(N)=O)C(=O)N[C@@H](CC(C)C)C(=O)N[C@@H](CCSC)C(=O)N[C@@H](Cc1cnc[nH]1)C(=O)N[C@@H](CCC(N)=O)C(=O)N[C@@H](CCCCNC(=N)N)C(=O)N[C@@H](C)C(=O)N[C@@H](CCCCN)C(=O)N[C@H]1CCC[C@@H]1C(=O)N[C@@H](CC(C)C)C(=O)N[C@@H](CC(N)=O)C(=O)N[C@@H](CO)C(=O)N[C@H]1CCC[C@@H]1C(=O)N[C@@H](CCCNC(=N)N)C(=O)N[C@@H](CCCNC(=N)N)C(=O)N[C@H](C(=O)N[C@H]1CNC[C@@H]1C(=O)N[C@@H](Cc1c[nH]c2ccccc12)C(=O)N[C@@H](CC(C)C)C(=O)N[C@@H](CCCNC(=N)N)C(=O)N[C@H]1CNC[C@@H]1C(=O)N[C@@H](CCCCN)C(=O)N[C@@H](CC(C)C)C(=O)N[C@@H](CCC(N)=O)C(=O)N[C@H]1CCC[C@@H]1C(=O)N[C@H](C(=O)N[C@@H](Cc1cnc[nH]1)C(=O)N[C@@H](CC(N)=O)C(=O)N[C@H]1CCC[C@@H]1C(N)=O)C(C)C)C(C)C (H-AVAEIQLMHQ[hArg]AK[X1]LNS[X1]RRV[X2]WLR[X2]KLQ[X1]VHN-{NH(1S,2S-2-CONH2-cPent)}) | 9.29 | 6.3
4 | CC[C@H](C)[C@H](NC(=O)[C@H](CCC(=O)O)NC(=O)C(C)(C)NC(=O)[C@@H](NC(=O)[C@H]1CCC[C@@H]1N)C(C)C)C(=O)N[C@@H](CCC(N)=O)C(=O)N[C@H]1CCC[C@@H]1C(=O)N[C@@H](CCSC)C(=O)N[C@@H](Cc1cnc[nH]1)C(=O)N[C@@H](CCC(N)=O)C(=O)N[C@@H](CCCCNC(=N)N)C(=O)N[C@@H](C)C(=O)N[C@@H](CCCCN)C(=O)N[C@@H](Cc1c[nH]c2ccccc12)C(=O)N[C@@H](CC(C)C)C(=O)N[C@@H](CC(N)=O)C(=O)N[C@@H](CO)C(=O)N[C@@H](CCSC)C(=O)N[C@@H](CCCNC(=N)N)C(=O)N[C@@H](CCCNC(=N)N)C(=O)N[C@H](C(=O)N[C@@H](CCC(=O)O)C(=O)N[C@@H](Cc1c[nH]c2ccccc12)C(=O)N[C@@H](CC(C)C)C(=O)N[C@@H](CCCNC(=N)N)C(=O)N[C@@H](CCCCN)C(=O)N[C@@H](CCCCN)C(=O)N[C@@H](CC(C)C)C(=O)N[C@@H](CCC(N)=O)C(=O)N[C@@H](CC(=O)O)C(=O)N[C@H](C(=O)N[C@@H](Cc1cnc[nH]1)C(=O)N[C@@H](CC(N)=O)C(=O)N[C@@H](Cc1ccccc1)C(N)=O)C(C)C)C(C)C ({ACPC(1S,2S)}-V[Aib]EIQ[X1]MHQ[hArg]AKWLNSMRRVEWLRKKLQDVHNF-NH2) | 9.28 | 6.3
5 | CC[C@H](C)[C@H](NC(=O)[C@H](CCC(=O)O)NC(=O)C(C)(C)NC(=O)[C@@H](NC(=O)[C@H]1CCC[C@@H]1N)C(C)C)C(=O)N[C@@H](CCC(N)=O)C(=O)N[C@H]1CCC[C@@H]1C(=O)N[C@@H](CCSC)C(=O)N[C@@H](Cc1cnc[nH]1)C(=O)N[C@@H](CCC(N)=O)C(=O)N[C@@H](CCCCNC(=N)N)C(=O)N[C@@H](C)C(=O)N[C@@H](CCCCN)C(=O)N[C@H](CC(=O)N[C@@H](CC(C)C)C(=O)N[C@@H](CC(N)=O)C(=O)N[C@@H](CO)C(=O)N[C@@H](CCSC)CC(=O)N[C@@H](CCCNC(=N)N)C(=O)N[C@@H](CCCNC(=N)N)C(=O)N[C@H](C(=O)N[C@@H](CCC(=O)O)CC(=O)N[C@@H](Cc1c[nH]c2ccccc12)C(=O)N[C@@H](CC(C)C)C(=O)N[C@@H](CCCNC(=N)N)C(=O)N[C@@H](CCCCN)CC(=O)N[C@@H](CCCCN)C(=O)N[C@@H](CC(C)C)C(=O)N[C@@H](CCC(N)=O)C(=O)N[C@@H](CC(=O)O)CC(=O)N[C@H](C(=O)N[C@@H](Cc1cnc[nH]1)C(=O)N[C@@H](CC(N)=O)C(=O)N[C@H](CC(N)=O)Cc1ccccc1)C(C)C)C(C)C)Cc1c[nH]c2ccccc12 ({ACPC(1S,2S)}-V[Aib]EIQ[X1]MHQ[hArg]AK[β3hW]LNS[β3hM]RRV[β3hE]WLR[β3hK]KLQ[β3hD]VHN[β3hF]-NH2) | 9.08 | 10
6 | CC[C@H](C)[C@H](NC(=O)[C@H](CCC(=O)O)NC(=O)[C@H](C)NC(=O)[C@@H](NC(=O)[C@H](C)N)C(C)C)C(=O)N[C@@H](CCC(N)=O)C(=O)N[C@@H](CC(C)C)C(=O)N[C@@H](CCSC)C(=O)N[C@@H](Cc1cnc[nH]1)C(=O)N[C@@H](CCC(N)=O)C(=O)N[C@@H](CCCCNC(=N)N)C(=O)N[C@@H](C)C(=O)N[C@@H](CCCCN)C(=O)N[C@@H](Cc1c[nH]c2ccccc12)C(=O)N[C@@H](CC(C)C)C(=O)N[C@@H](CC(N)=O)C(=O)N[C@@H](CO)C(=O)N[C@@H](CCSC)C(=O)N[C@@H](CCCNC(=N)N)C(=O)N[C@@H](CCCNC(=N)N)C(=O)N[C@H](C(=O)N[C@@H](CCC(=O)O)C(=O)N[C@@H](Cc1c[nH]c2ccccc12)C(=O)N[C@@H](CC(C)C)C(=O)N[C@@H](CCCNC(=N)N)C(=O)N[C@@H](CCCCN)C(=O)N[C@@H](CCCCN)C(=O)N[C@@H](CC(C)C)C(=O)N[C@@H](CCC(N)=O)C(=O)N[C@@H](CC(=O)O)C(=O)N[C@H](C(=O)N[C@@H](Cc1cnc[nH]1)C(=O)N[C@@H](CC(N)=O)C(=O)N[C@@H](Cc1ccccc1)C(N)=O)C(C)C)C(C)C (H-AVAEIQLMHQ[hArg]AKWLNSMRRVEWLRKKLQDVHNF-NH2) | 9.47 | 4.2
7 | CSCC[C@H](NC(=O)[C@H](CO)NC(=O)[C@H](CC(N)=O)NC(=O)[C@H](CC(C)C)NC(=O)[C@H](Cc1c[nH]c2ccccc12)NC(=O)[C@H](CCCCN)NC(=O)[C@H](C)NC(=O)[C@H](CCCCNC(=N)N)NC(=O)[C@H](CCC(N)=O)NC(=O)[C@H](Cc1cnc[nH]1)NC(=O)[C@H](CCSC)NC(=O)[C@H]1CCC[C@@H]1NC(=O)[C@H](CCC(N)=O)NC(=O)[C@H]1CCC[C@@H]1NC(=O)[C@H](CCC(=O)O)NC(=O)C(C)(C)NC(=O)[C@@H](NC(=O)[C@H]1CCC[C@@H]1N)C(C)C)C(=O)N[C@@H](CCCNC(=N)N)C(=O)N[C@@H](CCCNC(=N)N)C(=O)N[C@H](C(=O)N[C@@H](CCC(=O)O)C(=O)N[C@@H](Cc1c[nH]c2ccccc12)C(=O)N[C@@H](CC(C)C)C(=O)N[C@@H](CCCNC(=N)N)C(=O)N[C@@H](CCCCN)C(=O)N[C@@H](CCCCN)C(=O)N[C@@H](CC(C)C)C(=O)N[C@@H](CCC(N)=O)C(=O)N[C@@H](CC(=O)O)C(=O)N[C@H](C(=O)N[C@@H](Cc1cnc[nH]1)C(=O)N[C@@H](CC(N)=O)C(=O)N[C@@H](Cc1ccccc1)C(N)=O)C(C)C)C(C)C ({ACPC(1S,2S)}-V[Aib]E[X1]Q[X1]MHQ[hArg]AKWLNSMRRVEWLRKKLQDVHNF-NH2) | 9.40 | 4.9
